US20130338092A1, “COMPOUNDS AND METHODS FOR TARGETING LEUKEMIC STEM CELLS” (The Broad Institute, Inc., priority 2011, published 2013)
Like-named read-outs stand apart in the source and are kept apart here.

Columns and labels:
[1] = system: normal HSPCs; assay: Normal HSPC coculture on primary MSC stroma; settings: for IC50: Mus musculus
Protocol: The material was cleaned, crushed and sequentially passed through 100 and 70 μM filters (Falcon). […] The biotin-labeled cells were spun down, resuspended in 0.5% FBS in PBS, and incubated for 15-30 minutes at 4° C. with agitation with 1 mL of Dynabead M-280 streptavidin-linked magnetic beads per 4 mice. The bead-linked cells were depleted using magnetic separation and rinsed once. The lineage- and CD48-depleted cell fraction was labeled with streptavidin-APC-Cy7 antibody from BD Biosciences and c-kit-APC, Sca-1-FITC, CD48-Pacific Blue, and CD150 PE-Cy7 antibodies from eBioscience. DsRed-positive lineage-Sca-1+c-kit+CD48− HSCs were sorted using a FACS DiVa or FACS ARIA (BD Biosciences).
A total of 20 μL of 20 μg/mL fibronectin (Millipore) in PBS was added to each well of a 384-well clear-bottomed black tissue-culture treated plate (Corning) and incubated for 30-120 minutes at 33° C. or 37° C. […] The fibronectin solution was removed from each well using a 24-channel wand aspirator; then 30 μL of BMSC solution was added to plate 2000 BMSCs/well. […] Each plate was covered with a sterile rayon breathable membrane (VWR) and plastic lid, and then spun at 500 rpm (approximately 60× gravity) with slow braking. The plates were incubated at room temperature for 60-90 minutes before incubation at 33° C. with 5% CO2 for 3 days prior to HSC addition.
The sorted HSCs, SLAMs and progenitor cells were resuspended in phenol-red free alpha-MEM with 20% FBS and diluted to 10,000 cells/mL. A total of 20 μL of cell solution containing 200 hematopoietic cells was added to each well using a multichannel pipettor or liquid-dispensing system. Each plate was covered with a sterile rayon breathable membrane (VWR) and plastic lid, and then spun at 500 rpm (approximately 60×gravity) with slow braking. The plates were incubated at room temperature for 60-90 minutes before incubation at 33° C. with 5% CO2 overnight prior to compound or cytokine addition.
Image analysis was performed using MetaXpress software from MDC and CellProfiler software from the Broad Institute of Harvard and MIT.
Compound addition and incubation was performed as described for the LSC coculture screen above, but without a media change or readdition of the compound.
The selected set was screened in 8-point dose against both normal HSPCs with a high number of replicates (6) and LSC-enriched leukemia cells, each cocultured on primary MSCs.

[2] = system: human AML cell lines (U937, THP-1, NOMO-1, SKM-1, NB4, and OCI-AML3); assay: AML cell line screen (CellTiter-Glo); type: cell-based
Protocol: Nomo-1, THP-1, SKM-1, NB4, and U937 cell lines were grown in RPMI (12-702F, BioWhittaker), 10% FBS (10082-147, Gibco), and 1% Pen-Strep (15140-122, Gibco) and OCI-AML3 was grown in α-MEM (36453, Stem Cell Technologies), 10% FBS (10082-147, Gibco), and 1% Pen-Strep (15140-122, Gibco). 3000 cells were plated in each well in 30 μl in white, 384 well plates (3570, Corning) and 16 hours later 100 nl of the appropriate compound was added to each well. 72 hours later the plates were cooled to room temperature and 30 μl of CellTiterGlo reagent (G7570, Promega) diluted 1:1 in PBS was added to each well and the plates were analyzed using an Envision (Perkin Elmer).
First, a traditional small molecule screen was performed on six human AML cell lines (U937, THP-1, NOMO-1, SKM-1, NB4, and OCI-AML3), two of which (NOMO-1, THP-1) contain the same oncogene (MLL-AF9) used to generate the primary leukemia cells utilized in our coculture system. The cell lines were grown in isolation under standard conditions, treated with the 160 compounds at 8-point dose, and three days later the viability of each well was quantified using CellTiter-Glo reagent. The IC50s from these AML cell line screens were then compared to the IC50s from the coculture screens. […] As discussed, the existence of such differentially-active compounds is consistent with our hypothesis that coculturing can expand the pool of therapeutically promising compounds identified in high throughput format.

[3] = system: dsRed+ LSCs; assay: Syngeneic transplantation of compound-treated triple cocultures, leukemia onset / survival; type: in vivo, mice; settings: cocultures treated 48 hours ex vivo, then transplanted; vs DMSO
Protocol: Heterotypic cocultures containing dsRed+ LSCs, CD45.1+ HSPCs, and GFP+ MSCs were exposed to compounds for 48 hours, then transplanted en masse post trypsinization with untreated wild-type helper splenocytes (CD45.1+CD45.2+) into lethally irradiated, wildtype recipient animals (CD45.2+). Latency of leukemia onset was compared for mice receiving cocultures treated with compound compared to DMSO control treated cocultures. The engraftment of the normal HSPCs treated and injected along with the leukemia cells was quantified by FACs analysis of the bone marrow of mice alive at the 16 week endpoint across treatments.
As in vivo readouts may better reflect hematopoietic stem cell function compared to in vitro readouts (Purton, L. E., and Scadden, D. T. (2007). Cell Stem Cell 1, 263-270.; Bock, T. A. (1997). Stem Cells 15 Suppl 1, 185-195.), our results were confirmed using murine transplantation studies. […] Compounds that increase disease latency relative to DMSO control are considered active. […] Bone marrow repopulating ability is a functional measure of normal HSPCs, assessed by quantifying long-term engraftment and differentiation patterns in recipient mice (Bock, T. A. (1997). Stem Cells 15 Suppl 1, 185-195.; Nguyen, L. V., Vanner, R., Dirks, P., and Eaves, C. J. (2012). Nat Rev Cancer 12, 133-143.). […]

[4] = system: normal murine HSPCs; assay: Triple coculture (LSCs and HSPCs on primary MSCs), normal HSPCs; settings: for IC50: Mus musculus, read-out: Normal HSPC* IC50
Protocol: As in the original assay approach, treatment of these triple cocultures began one day after hematopoietic cell plating and was assessed 5 days later.
An in vitro therapeutic index was determined for each compound, a comparative measure of the potential for anti-LSC efficacy relative to the potential for dose-limiting toxicities to normal HSCs (myeloablation), or to normal progenitors (myelosuppression). Specifically, ratios were created using the IC50s for primary murine HSPCs in triple coculture as the numerator, and the IC50s for primary murine leukemia inhibition in triple coculture as the denominator, toward assessing the potential for HSC harm relative to LSC inhibition.

[5] = read-out: Normal IC50, HSPCs on primary MSC stroma, 8-point dose

| SMILES | IC50 [1, 5] | IC50 ([1]; read-out: Normal IC50, statins (acid form), HSPCs cocultured on primary MSC stroma) | effect on normal HSPCs in coculture ([1]; up to 20 μM, the maximum dose tested) | activity against AML cell lines [2] | IC50 ([2]; Homo sapiens, read-out: IC50 across the AML cell lines) | latency of leukemia onset / survival of recipient mice [3] | normal HSPCs in triple coculture ([4]; 200 nM lovastatic acid or 1 μM BRD7116, 5 days) | IC50 [4] | inhibition of AML cell lines at maximal doses ([2]; of the positive control) | inhibition of AML cell lines ([2]; relative to DMSO control, concentrations greater than 30 μM) |
| --- | --- | --- | --- | --- | --- | --- | --- | --- | --- | --- |
| CCC(C)C(=O)OC1CC(C)C=C2C=CC(C)C(CCC(O)CC(O)CC(=O)O)C21 (stereo not shown) [Lovastatic acid] | > 20 µM | > 10 µM | minimal toxicity | only weak activity | > 10 µM | survived substantially longer than the DMSO control group | continued to display healthy, cobblestoned morphologies | 800 nM |  |  |
| CC1(C)C(C(=O)Nc2ccc(S(=O)(=O)c3ccc(NC(=O)C4C(C)(C)C4(C)C)cc3)cc2)C1(C)C [BRD7116] | > 20 µM |  |  |  |  | mild, but statistically significant prolonged latency of leukemia onset |  | 5000 nM | 50% | roughly 50% |
